From patent publication US20110039762A1, “TARGETED ANTIMICROBIAL MOIETIES” (C3 JIAN, INC., priority 2009, published 2011)
“Also recorded” adds a separate entry of the source.

Test system: microorganisms (e.g., bacteria, yeasts, fungi)
Test: Targeting peptide binding to target microorganisms (Table 3)
Conditions: microorganism(s) the targeting peptide binds; binding in aqueous buffers depending on peptide solubility, preferably 1x PBS

Substance | Target(s)
PF-317 (LILVSDI; Peptide with targeting and/or antimicrobial activity) | S. mutans
PF-320 (DSGYYALLENKEERVVWDGEVVANNIFNNLWIVVNKVKTG; Peptide with targeting and/or antimicrobial activity) | S. mutans; also recorded: E. coli
PF-323 (ARESIEKSHVPVDATIVGVVDSFEVFDE; Peptide with targeting and/or antimicrobial activity) | S. mutans
PF-324 (HFSLL; Peptide with targeting and/or antimicrobial activity) | C. difficile
PF-325 (LTIDEKLRNHR; Peptide with targeting and/or antimicrobial activity) | S. mutans; also recorded: E. coli
PF-326 (VIVGNLGAQKEKRNDTPISAKKDIMGDKTVRVRADLHH; Peptide with targeting and/or antimicrobial activity) | S. mutans; also recorded: E. coli
PF-328 (NGNEKAFSEVENLVK; Peptide with targeting and/or antimicrobial activity) | S. mutans
PF-329 (IGILFDKSVRKY; Peptide with targeting and/or antimicrobial activity) | S. epidermidis
PF-333 (YMTKKLVEMAEQQMAGKSNR; Peptide with targeting and/or antimicrobial activity) | S. mutans
PF-334 (QQYLILDRM; Peptide with targeting and/or antimicrobial activity) | S. epidermidis; also recorded: C. difficile
PF-337 (YMTKKLVEMAERQMAGK; Peptide with targeting and/or antimicrobial activity) | S. epidermidis
PF-338 (KGTSCPDQLSKAIRQSI; Peptide with targeting and/or antimicrobial activity) | S. mutans
PF-340 (VKDVLLELFNKIIGA; Peptide with targeting and/or antimicrobial activity) | S. mutans; also recorded: E. coli
PF-348 (ESASAAEWYNPNMNVKKAICMG; Peptide with targeting and/or antimicrobial activity) | B. subtilis; also recorded: E. coli; also recorded: P. aeruginosa; also recorded: C. albicans; also recorded: E. faecalis; also recorded: C. jejuni
PF-351 (YLFFKGKKVAEEEATKDEVKR; Peptide with targeting and/or antimicrobial activity) | S. mutans
PF-352 (RVKKIG; Peptide with targeting and/or antimicrobial activity) | C. jeikeium
PF-359 (MTVMEDPGSEQRNKIQSPMKGEDFSALFGR; Peptide with targeting and/or antimicrobial activity) | S. epidermidis and B. fragilis and P. aeruginosa and C. albicans and MRSA and E. faecalis and C. jeikeium
PF-361 (NQVTEGIRLLVE; Peptide with targeting and/or antimicrobial activity) | S. epidermidis; also recorded: E. coli; also recorded: E. faecalis; also recorded: C. jejuni
PF-364 (LVNGIKI; Peptide with targeting and/or antimicrobial activity) | S. epidermidis; also recorded: B. fragilis; also recorded: P. aeruginosa; also recorded: C. jeikeium; also recorded: C. jejuni
PF-365 (LYKQKIQLEEELEKLKDDRQ; Peptide with targeting and/or antimicrobial activity) | S. epidermidis; also recorded: B. subtilis; also recorded: B. fragilis; also recorded: P. aeruginosa; also recorded: C. albicans
PF-367 (TKTPGTFTPGTGIQKTAVPL; Peptide with targeting and/or antimicrobial activity) | B. subtilis
PF-368 (MLKQTA; Peptide with targeting and/or antimicrobial activity) | C. jeikeium; also recorded: C. jejuni
PF-371 (TFIYNEF; Peptide with targeting and/or antimicrobial activity) | S. epidermidis; also recorded: B. fragilis; also recorded: C. jejuni
PF-372 (KKQDKRIEDKYKRMKKGD; Peptide with targeting and/or antimicrobial activity) | C. jeikeium; also recorded: C. jejuni
PF-384 (HISKERFEAY; Peptide with targeting and/or antimicrobial activity) | E. faecalis; also recorded: C. jeikeium; also recorded: C. jejuni

Same assay, conditions: microorganism(s) the targeting peptide binds; peptide binding conducted in aqueous buffers varied by peptide solubility, preferably 1x PBS

Substance | Target(s)
PF-388 (ITPLLDEIGKVCIDKISK; Peptide with targeting and/or antimicrobial activity) | E. faecalis; also recorded: C. jeikeium; also recorded: C. jejuni
PF-400 (VIAWKFRNKFENSGV; Peptide with targeting and/or antimicrobial activity) | S. epidermidis; also recorded: E. coli; also recorded: S. pneumoniae; also recorded: E. faecalis; also recorded: C. jeikeium
PF-402 (FIDVLKSKINEFLN; Peptide with targeting and/or antimicrobial activity) | S. epidermidis; also recorded: P. aeruginosa; also recorded: E. faecalis; also recorded: C. jejuni
PF-409 (DLVQSILSEFKKSG; Peptide with targeting and/or antimicrobial activity) | S. epidermidis and MRSA and C. jeikeium and C. jejuni
PF-412 (TSGWLGQLEQ; Peptide with targeting and/or antimicrobial activity) | M. luteus; also recorded: E. coli; also recorded: C. albicans; also recorded: C. jeikeium; also recorded: C. jejuni
PF-435 (MSRWDGHSDKGEAPAGKPPMHGFGLNGENK; Peptide with targeting and/or antimicrobial activity) | C. jeikeium
PF-436 (KKHVLVGKQEKNG; Peptide with targeting and/or antimicrobial activity) | C. jeikeium
PF-438 (QPYFQNQFKKITGYTPLQYRKEKR; Peptide with targeting and/or antimicrobial activity) | S. epidermidis; also recorded: E. coli; also recorded: S. pneumoniae; also recorded: C. jeikeium; also recorded: C. jejuni
PF-441 (TQVHKMARGIDPGPANGIYR; Peptide with targeting and/or antimicrobial activity) | C. jeikeium
PF-463 (MVILVFSLIFIFTDNYLVYQSKSIKEDVMI; Peptide with targeting and/or antimicrobial activity) | S. epidermidis; also recorded: E. coli; also recorded: P. aeruginosa; also recorded: C. albicans; also recorded: S. pneumoniae; also recorded: E. faecalis; also recorded: M. smegmatis
PF-481 (DELYEIMDKVIEEFNKDIEQNNNNGNNEDLTENKIN; Peptide with targeting and/or antimicrobial activity) | C. jeikeium
PF-483 (EDNKDKKDKKDK; Peptide with targeting and/or antimicrobial activity) | P. mirabilis; also recorded: C. jeikeium; also recorded: C. jejuni
PF-486 (MQKEGEEDY; Peptide with targeting and/or antimicrobial activity) | S. mutans
PF-487 (MYKAIAVLAMTIMAFFIFVYPFFIVGLILG; Peptide with targeting and/or antimicrobial activity) | S. mutans; also recorded: E. coli
PF-488 (YPNEQGHHKNNLKNIIIE; Peptide with targeting and/or antimicrobial activity) | S. mutans; also recorded: E. coli
PF-489 (KVDRVSTTITEKIK; Peptide with targeting and/or antimicrobial activity) | S. mutans
PF-490 (RLILVSGNATVQK; Peptide with targeting and/or antimicrobial activity) | S. mutans; also recorded: E. coli
PF-491 (IHQYSSKPDIVGQEAKTVQQINS; Peptide with targeting and/or antimicrobial activity) | S. mutans; also recorded: E. coli
PF-492 (IQIDAASFYSISKSTIK; Peptide with targeting and/or antimicrobial activity) | S. mutans; also recorded: B. subtilis; also recorded: E. coli
PF-493 (PGAFFFCRGRGCWCGIGW; Peptide with targeting and/or antimicrobial activity) | S. mutans; also recorded: B. subtilis; also recorded: E. coli
PF-494 (FTEPLRPLQAKGQIISIKPSTSSS; Peptide with targeting and/or antimicrobial activity) | S. mutans
PF-495 (KGIYKKRTY; Peptide with targeting and/or antimicrobial activity) | S. mutans; also recorded: E. coli
PF-496 (EVTKRLVALAQQQLRG; Peptide with targeting and/or antimicrobial activity) | S. mutans; also recorded: E. coli
PF-498 (MSEEEEVSEKVYNYLRRNEFFEVRKEEFSA; Peptide with targeting and/or antimicrobial activity) | S. mutans; also recorded: E. coli
PF-500 (MGIFKEEKIKFIDCKGEEVILKIKIKDIKK; Peptide with targeting and/or antimicrobial activity) | S. mutans; also recorded: E. coli
PF-501 (GSTAHKSPIGSTNNQWGMKKTPTD; Peptide with targeting and/or antimicrobial activity) | S. mutans
PF-502 (NKGKQMQDQTGKQPIVDNG; Peptide with targeting and/or antimicrobial activity) | S. mutans
PF-503 (VVTLKDIVAVIEDQGYDVQ; Peptide with targeting and/or antimicrobial activity) | S. mutans
PF-504 (ILSVELSTKTSASGS; Peptide with targeting and/or antimicrobial activity) | S. mutans; also recorded: E. coli
